Test results from patent publication US20040077881A1, “$G(d)1-pyrrolines used in pest control” (priority 2001, published 2004).
Like-named read-outs stand apart in the source and are kept apart here.

Test: logP determination by HPLC (EEC directive 79/831 Annex V.A8, reversed-phase C 18)
Type: physicochemical
Conditions: for chromatographic logP: reversed-phase HPLC column (C 18); for log P2: second HPLC peak of the mixture of diastereomers
Protocol: The stated logP values were determined in accordance with EEC directive 79/831 Annex V.A8 by HPLC (High Performance Liquid Chromatography) using a reversed-phase column (C 18). Temperature: 43° C. In the acidic range, the determination was carried out at pH 2.3 using the mobile phases 0.1% aqueous phosphoric acid and acetonitrile; linear gradient from 10% acetonitrile to 90% acetonitrile.

[1] = pH 2.3, first HPLC peak of the mixture of diastereomers, reversed-phase C 18, 43° C., pH 2.3, read-out: log P1
[2] = pH 2.3, second HPLC peak of the mixture of diastereomers, reversed-phase C 18, 43° C., pH 2.3, read-out: log P2
[3] = pH 2.3, HPLC, reversed-phase column (C 18), 43° C., pH 2.3, 0.1% aqueous phosphoric acid/acetonitrile, read-out: log P
[4] = reversed-phase C 18, 43° C., pH 2.3

Row | Compound | chromatographic logP [1] | chromatographic logP [3] | also measured
1 | O=S(=O)(Oc1ccc([C@H]2CC(Br)C(c3c(F)cccc3F)=N2)cc1)C(F)(F)F (stereo partly drawn) [Example 8, 4-[(2R)-4-bromo-5-(2,6-difluorophenyl)-3,4-dihydro-2-pyrrol-2-yl]phenyl-trifluoromethanesulphonate] | 4.39 | – | chromatographic logP [2]: 4.49
2 | O=S(=O)(Oc1ccc(-c2ccc([C@H]3C[C@H](Cl)C(c4c(F)cccc4F)=N3)cc2)cc1)C(F)(F)F [Example 7, 4′-[(2R)-4-chloro-5-(2,6-difluorophenyl)-3,4-dihydro-2-yl]-1,1′-biphenyl-4-yl trifluoromethanesulphonate] | – | 5.22 | –
3 | CC1(C)CC(c2ccc(-c3ccc(OC(F)(F)F)cc3)cc2)N=C1c1c(F)cccc1F (stereo not drawn) [Example 11, 4,4-dimethyl-5-(2,6-difluorophenyl)-2-[4′-(trifluoromethoxy)-1,1′-biphenyl-4-yl]-3,4-dihydro-2H-pyrrole] | – | 5.67 | –
4 | O=S(=O)(Oc1ccc([C@H]2CC(Br)(Br)C(c3c(F)cccc3F)=N2)cc1)C(F)(F)F [Example 9, 4-[(2R)-4,4-dibromo-5-(2,6-difluorophenyl)-3,4-dihydro-2H-pyrrol-2-yl]phenyl-trifluoromethanesulphonate] | – | 4.97 | –
5 | Fc1cccc(F)c1C1=NC(c2ccc(-c3ccc(OC(F)(F)F)cc3)cc2)CC1Cl (stereo not drawn) [Example 1, 4-chloro-5-(2,6-difluorophenyl)-2-[4′-(trifluoromethoxy)-1,1′-biphenyl-4-yl]-3,4-dihydro-2H-pyrrole] | 5.31 | – | log P2 [4]: 5.39
6 | Fc1cccc(F)c1C1=N[C@@H](c2ccc(-c3ccc(OC(F)(F)F)cc3)cc2)CC1Cl (stereo partly drawn) [Example 2, (2R)-4-chloro-5-(2,6-difluorophenyl)-2-[4′-(trifluoromethoxy)-1,1′-biphenyl-4-yl]-3,4-dihydro-2H-pyrrole] | 5.31 | – | log P2 [4]: 5.39

The next lines start with results.

Row | chromatographic logP [1] | chromatographic logP [3] | Compound | also measured
7 | 1.4 | – | O=S(=O)(O)C1CC(c2ccc(Br)cc2)N=C1c1c(F)cccc1F (stereo not drawn) [Example 12, 2-(4-bromophenyl)-5-(2,6-difluorophenyl)-3,4-dihydro-2H-pyrrole-4-sulphonic acid] | chromatographic logP [2]: 1.6
8 | – | 4.77 | CCOS(=O)(=O)C1CC(c2ccc(-c3ccc(OC(F)(F)F)cc3)cc2)N=C1c1c(F)cccc1F (stereo not drawn) [Example 15, ethyl 5-(2,6-difluorophenyl)-2-[4′-(trifluoromethoxy)-1,1′-biphenyl-4-yl]-3,4-dihydro-2H-pyrrole-4-sulphonate] | –
9 | – | 6.43 | Fc1cccc(F)c1C1=N[C@@H](c2ccc(-c3ccc(OC(F)(F)F)cc3)cc2)CC1=Cc1ccc(Br)cc1 [Example 14, (2R)-4-(4-bromobenzylidene)-5-(2,6-difluorophenyl)-2-[4′-(trifluoromethoxy)-1,1′-biphenyl-4-yl]-3,4-dihydro-2H-pyrrole] | –
10 | – | 6.45 | CC(C)(C)OC(=O)NC(CC(C)(C)C(=O)c1c(F)cccc1F)c1ccc(-c2ccc(OC(F)(F)F)cc2)cc1 (stereo not drawn) [tert-butyl 4-(2,6-difluorophenyl)-3,3-dimethyl-4-oxo-1-[4′-(trifluoromethoxy)-1,1′-biphenyl-4-yl]butylcarbamate] | –
11 | 2.32 | – | O=S(=O)(O)C1CC(c2ccc(-c3ccc(OC(F)(F)F)cc3)cc2)N=C1c1c(F)cccc1F (stereo not drawn) [Example 13, 5-(2,6-difluorophenyl)-2-[4′-(trifluoromethoxy)-1,1′-biphenyl-4-yl]-3,4-dihydro-2H-pyrrole-4-sulphonic acid] | log P1 (first HPLC peak of the mixture of diastereomers, reversed-phase C 18, 43° C., pH 2.3): 2.29; chromatographic logP [2]: 2.46
12 | – | 5.77 | Fc1cccc(F)c1C1=NC(c2ccc(-c3ccc(OC(F)(F)F)cc3)cc2)CC1=Cc1ccccc1 (stereo not drawn) [Example 16, 4-benzylidene-5-(2,6-difluorophenyl)-2-[4′-(trifluoromethoxy)-1,1′-biphenyl-4-yl]-3,4-dihydro-2H-pyrrole] | –
